Data as given in PubChem BioAssay AID1996.
In brackets after ≈: the same amount, converted by molar mass.

Settings: buffer; pH 7.4; 200.0 µM

With `COC(=O)Cn1ncc(N(C)Cc2ccccc2)c(Cl)c1=O` as the compound, how does the solubility kinetic read?
Its solubility kinetic is > 48.3 µg/mL.

With `CN(C(=O)Cc1c(C(=O)O)n(C)c2ccccc12)c1ccc(Cl)cc1` as the compound, how does the solubility kinetic read?
The solubility kinetic was > 53.5 µg/mL.

For `CNC(=S)NC1(C)CCS(=O)(=O)C1` (stereo not given), which solubility kinetic is on record?
The solubility kinetic was > 33.3 µg/mL.

With `CC1CC1C(=O)OCC(=O)Nc1ccc(Cl)cn1` (stereo not given) as the compound, how does the solubility kinetic read?
Its solubility kinetic is 27.6 µg/mL (≈ 103 µM).

For `Cc1cccc(NC(=O)c2ccc3nccnc3c2)c1C`, which solubility kinetic is on record?
The solubility kinetic was 37.1 µg/mL (≈ 134 µM).

For `COc1ccccc1CC(=O)NCCCc1ccccc1`, which solubility kinetic is on record?
Its solubility kinetic is > 42.5 µg/mL.

For `N#Cc1c(-c2ccccc2)cc(-c2ccc(O)cc2)nc1N`, which solubility kinetic is on record?
Its solubility kinetic is < 0.2 µg/mL.

Which solubility kinetic does the source give for `CCOc1ccccc1NC(=O)Nc1ccc(CC#N)cc1` here?
The solubility kinetic was 37.8 µg/mL (≈ 128 µM).

Which solubility kinetic does the source give for `Clc1ccccc1OCCCn1ccnc1` here?
Its solubility kinetic is 26.4 µg/mL (≈ 112 µM).

For `N#Cc1ccc(C(=O)NC(=S)N2CCN(C=O)CC2)cc1`, which solubility kinetic is on record?
Its solubility kinetic is 39 µg/mL (≈ 129 µM).

With `Cc1cnc([N+](=O)[O-])n1CCOC(=O)c1cccc(F)c1` as the compound, how does the solubility kinetic read?
Its solubility kinetic is > 44 µg/mL.

Which solubility kinetic does the source give for `CC1Sc2ccc(C(=O)NCc3ccccc3Cl)cc2NC1=O` (stereo not given) here?
The solubility kinetic was 4.1 µg/mL (≈ 11.8 µM).

For `Cc1ccc(/C(O)=C/c2nc3ccccc3oc2=O)cc1`, which solubility kinetic is on record?
Its solubility kinetic is 22.5 µg/mL (≈ 80.6 µM).

For `CC(=O)Nc1ccc(Nc2ncnc3ccccc23)cc1`, which solubility kinetic is on record?
Its solubility kinetic is 6.5 µg/mL (≈ 23.4 µM).

Which solubility kinetic does the source give for `O=C(O)c1ccc(Cn2cnc3cccnc32)cc1` here?
Its solubility kinetic is > 38 µg/mL.

Which solubility kinetic does the source give for `CCc1cc2c(NC(Cc3ccccc3)C(=O)O)ncnc2s1` (stereo not given) here?
Its solubility kinetic is > 49.1 µg/mL.

Which solubility kinetic does the source give for `CC1CCN(C(=O)COC(=O)c2ccc([N+](=O)[O-])o2)CC1` here?
The solubility kinetic was > 44.4 µg/mL.

Which solubility kinetic does the source give for `COc1ccc(CCNC(=O)[C@@H](NC(N)=O)C(C)C)cc1` here?
The solubility kinetic was > 44 µg/mL.

Which solubility kinetic does the source give for `CCC(C)C(=O)Nc1ccc(S(=O)(=O)Nc2nccs2)cc1` (stereo not given) here?
The solubility kinetic was > 50.9 µg/mL.

For `CCCNC(=S)N1CCC(C(=O)c2ccc(F)cc2)CC1`, which solubility kinetic is on record?
Its solubility kinetic is > 46.3 µg/mL.

With `CCOC(=O)c1sc(=S)n(CC)c1NC(=O)c1ccccc1C` as the compound, how does the solubility kinetic read?
The solubility kinetic was 3.4 µg/mL (≈ 9.7 µM).

Which solubility kinetic does the source give for `N#Cc1ccc(S(=O)(=O)NC2CCCCNC2=O)cc1` (stereo not given) here?
The solubility kinetic was > 44 µg/mL.

With `Cc1ccc(Nc2nc3ccccc3c(=O)[nH]2)cc1C` as the compound, how does the solubility kinetic read?
Its solubility kinetic is 0.4 µg/mL (≈ 1.51 µM).

Which solubility kinetic does the source give for `Brc1ccc(CNc2ccc3ncccc3c2)cc1` here?
Its solubility kinetic is < 0.3 µg/mL.

For `CC(C)(C)NC(=O)NCCc1ccccc1`, which solubility kinetic is on record?
The solubility kinetic was 30 µg/mL (≈ 136 µM).

With `O=C(c1cc2ccccc2cc1O)N1CCCC(C(F)(F)F)C1` (stereo not given) as the compound, how does the solubility kinetic read?
Its solubility kinetic is > 48.5 µg/mL.

For `Cc1ccc2c(C(=O)CN3CC(C)CC(C)C3)c(C)[nH]c2c1` (stereo not given), which solubility kinetic is on record?
Its solubility kinetic is 38.6 µg/mL (≈ 129 µM).

With `CC(Nc1nc(-c2ccccc2O)nc2ccccc12)c1ccccc1` (stereo not given) as the compound, how does the solubility kinetic read?
Its solubility kinetic is < 0.2 µg/mL.

For `Cc1nc(N/C(N)=N/S(=O)(=O)c2ccccc2)nc2ccccc12`, which solubility kinetic is on record?
Its solubility kinetic is 3.6 µg/mL (≈ 10.5 µM).

With `Oc1ccc2ccccc2c1C=Nc1ccccc1Br` as the compound, how does the solubility kinetic read?
The solubility kinetic was < 0.7 µg/mL.

With `COc1ccc(NC(=O)CN2C(=O)NC3(CCCc4ccccc43)C2=O)c(OC)c1` (stereo not given) as the compound, how does the solubility kinetic read?
Its solubility kinetic is > 61.4 µg/mL.

With `CCOC(=O)NC(=O)c1cn(CCNCCO)c(=O)[nH]c1=O` as the compound, how does the solubility kinetic read?
The solubility kinetic was > 47.1 µg/mL.

With `COC(=O)Cn1c2ccc(C)cc2c2nc3ccccc3nc21` as the compound, how does the solubility kinetic read?
The solubility kinetic was < 0.2 µg/mL.

With `O=C(COC(=O)C1CC2C=CC1C2)Nc1ccccc1[N+](=O)[O-]` (stereo not given) as the compound, how does the solubility kinetic read?
Its solubility kinetic is 29.4 µg/mL (≈ 92.9 µM).

For `CCS(=O)(=O)c1ccc2oc(Nc3cccc(OC)c3)nc2c1`, which solubility kinetic is on record?
The solubility kinetic was 8.2 µg/mL (≈ 24.7 µM).

With `O=S(=O)(NCC1CCCO1)c1ccccc1F` (stereo not given) as the compound, how does the solubility kinetic read?
The solubility kinetic was > 38.9 µg/mL.

For `COc1cc(OC)cc(C(=O)N[C@H](C(=O)NCc2ccco2)C(C)C)c1`, which solubility kinetic is on record?
The solubility kinetic was 45.3 µg/mL (≈ 126 µM).

With `N#Cc1c(NCCCO)nc(NCc2ccccc2)c2c1CCN(Cc1ccccc1)C2` as the compound, how does the solubility kinetic read?
The solubility kinetic was 7.7 µg/mL (≈ 18 µM).

For `Cc1ccc(S(=O)(=O)N2CCC(C(N)=O)CC2)cc1[N+](=O)[O-]`, which solubility kinetic is on record?
Its solubility kinetic is > 49.1 µg/mL.

For `CC(C)(C)C(=O)Nc1ccc(N2CCN(S(C)(=O)=O)CC2)cc1`, which solubility kinetic is on record?
Its solubility kinetic is 17.6 µg/mL (≈ 51.8 µM).

Which solubility kinetic does the source give for `Cc1cc(C(F)F)nn1CC(=O)NC1CCCC1` here?
The solubility kinetic was > 38.6 µg/mL.

Which solubility kinetic does the source give for `O=C(Cc1c(F)cccc1Cl)Nc1nccs1` here?
Its solubility kinetic is 30 µg/mL (≈ 111 µM).

Which solubility kinetic does the source give for `O=C(CCCNC(=O)c1ccc(Cl)cc1)Nc1ccccc1F` here?
The solubility kinetic was 33.5 µg/mL (≈ 100 µM).

Which solubility kinetic does the source give for `CCN(C(=O)COC(=O)c1ccc(O)cc1)c1cccc2ccccc12` here?
Its solubility kinetic is 24.6 µg/mL (≈ 70.4 µM).

With `COC(=O)c1cccnc1Oc1ccccc1` as the compound, how does the solubility kinetic read?
Its solubility kinetic is 26.5 µg/mL (≈ 116 µM).

For `Cc1ccc(N(C)S(=O)(=O)c2csc(C(N)=O)c2)cc1C`, which solubility kinetic is on record?
Its solubility kinetic is 43.8 µg/mL (≈ 135 µM).

Which solubility kinetic does the source give for `Cc1cc(C)cc(NC(=O)CN2CCN(c3ccccn3)CC2)c1` here?
The solubility kinetic was 2.8 µg/mL (≈ 8.63 µM).

Which solubility kinetic does the source give for `O=C(c1ccc(F)cc1)N1CCC(c2ccccc2)C1` (stereo not given) here?
Its solubility kinetic is 39.8 µg/mL (≈ 148 µM).

For `O=c1[nH]c2cccnc2n1-c1cccc([N+](=O)[O-])c1`, which solubility kinetic is on record?
The solubility kinetic was 17 µg/mL (≈ 66.3 µM).

With `O=C(CSc1nc2ccccc2c(=O)n1CCCN1CCOCC1)Nc1ccc(Br)cc1` as the compound, how does the solubility kinetic read?
Its solubility kinetic is 5.3 µg/mL (≈ 10.2 µM).

With `COC(=O)c1cccc(NS(C)(=O)=O)c1` as the compound, how does the solubility kinetic read?
Its solubility kinetic is > 34.4 µg/mL.

For `C=CCNc1nc(NCc2ccccc2)c(C#N)c2c1CN(C)CC2`, which solubility kinetic is on record?
Its solubility kinetic is 3 µg/mL (≈ 9 µM).

For `Cc1ccc(S(=O)(=O)NCc2cccnc2)cc1`, which solubility kinetic is on record?
The solubility kinetic was > 39.3 µg/mL.

Which solubility kinetic does the source give for `N#Cc1ccc(C(=O)NN2C(=O)NC3(CCCCC3)C2=O)cc1` here?
The solubility kinetic was > 46.8 µg/mL.

Which solubility kinetic does the source give for `O=C(NCc1ccccc1F)c1cc(=O)[nH]c2ccccc12` here?
Its solubility kinetic is 4.9 µg/mL (≈ 16.5 µM).

Which solubility kinetic does the source give for `O=C(COC(=O)c1ccc2c(c1)OCO2)Nc1ccccc1F` here?
The solubility kinetic was 6.3 µg/mL (≈ 19.9 µM).

With `CCN1C(=O)c2ccc(C(=O)Nc3ccc(O)cc3C)cc2C1=O` as the compound, how does the solubility kinetic read?
The solubility kinetic was > 48.7 µg/mL.

For `CC(C)[C@H](NC(=O)c1ccc([N+](=O)[O-])cc1Cl)C(=O)N1CCN(C/C=C/c2ccccc2)CC1`, which solubility kinetic is on record?
The solubility kinetic was 44.3 µg/mL (≈ 91.3 µM).

For `CCC1CO/C(=C(\C(=C(Cl)Cl)N2CCOCC2)[N+](=O)[O-])N1` (stereo not given), which solubility kinetic is on record?
The solubility kinetic was > 50.7 µg/mL.

For `CC(C)(C)c1nc2cc(Cl)c([N+](=O)[O-])cc2o1`, which solubility kinetic is on record?
The solubility kinetic was 6.5 µg/mL (≈ 25.5 µM).
